Assay results published in patent publication US7534871B2, “Preparation and use of carbohydrate-based bicyclic ring structures with antimicrobial and cytostatic activity” (Kemin Pharma B.V.B.A., priority 2004, dated 2009).

system: VRE ATCC700221; assay: Anti-bacterial activity, Bioscreen C growth curve: VRE; format: cell-based, vancomycin-resistant Enterococcus (VRE); details: Enterococcus, 35° C., 16 hours, negative control = 100, read-out: % of growth at 25 PPM compared to the negative control, VRE ATCC700221
Experimental: (§1) For the determination of the anti-bacterial and anti-fungal activity the Bioscreen C Analyser Labsystems, Finland, was used. This is an automated reader-incubator. It measures growth continuously by vertical photometry (optical density), processes the data and provides a print out of the results. The area under the growth curve is automatically determined via the Biolink software.
(§2) The inoculum size of the bacteria is standardized to approximately 5×10^5 CFU/ml.
(§3) For bacteria, the 100-honey-well plates containing test chemical, Mueller-Hinton broth and inoculum (=sample) are incubated at 35° C. for 16 hours. Also wells without inoculum are incubated (=blanco). Yeasts are incubated 35° C. for 24 hours in RPMI 1640+MOPS buffer at 165 mM. Moulds also in RPMI 1640+MOPS buffer at 165 mM are incubated 25° C. for 5 days. All micro-organisms are screened against a known concentration of the reference antibiotics or antimycotics such as vancomycin, penicillin G, gentamicin or amphotericin B. The growth curve and the area under the growth curve can be determined using the Biolink software; this is illustrated in FIG. 1.
(§4) The area of the blanco is subtracted from the area of the sample, this number (delta) gives us an indication of the biological activity of the molecules tested and can be expressed as a % of growth at a specific dose compared to a negative control that has a value of 100, illustrated in FIG. 2. Screening of each dose of a specific compound is repeated 5 times. The dose used for all new molecules in all tests is 25 PPM or 25 μg/ml.
(§5) In Table 4 the results of the anti-bacterial activity is given for the new molecules. The micro-organisms used are Staphylococcus aureus, MRSA, VRE, Enterococcus faecalis, Salmonella typhimurium and Pseudomonas aeruginosa.

SMILES	activity at 25 ppm [%]
CO[C@H]1[C@@H]2OC(=O)CC/C=C/CCC(=O)OC[C@H]2OC[C@@H]1OC [KPE00001006]	96.5
CO[C@@H]1[C@@H](OC)[C@H](Sc2ccccc2)O[C@@H]2COC(=O)CCC(O)C(O)CCC(=O)O[C@@H]12 (stereo partly shown) [KPE00001007]	93
CO[C@@H]1[C@@H](OC)[C@H](Sc2ccccc2)O[C@@H]2COCCC/C=C/CCCO[C@@H]12 [KPE00001009.1]	82
CO[C@@H]1[C@@H](OC)[C@H](Sc2ccccc2)O[C@@H]2COCCC/C=C\CCCO[C@@H]12 [KPE00001009.2]	86.4
CO[C@H]1[C@@H]2OC(=O)CCCCCCC(=O)OC[C@H]2OC[C@@H]1OC [KPE00001010]	93
CO[C@@H]1[C@@H](OC)[C@H](O)[C@@H](CO)O[C@H]1Sc1ccccc1 [KPE00001011]	79

system: Candida albicans IHEM 10284 - ATCC 24433; assay: Anti-fungal activity, Bioscreen C growth curve: Candida albicans (yeast); format: cell-based; details: Candida albicans, ATCC24433; 25 PPM; 35° C., 24 hours; negative control = 100; read-out: % of growth at a dose of 25 PPM compared to the negative control, Candida albicans IHEM 10284 - ATCC 24433
Experimental: as §1
The inoculum size of the yeast is standardized to 0.5-2.5×10^3 CFU/ml.
as §3, §4
(§6) In Table 5 the anti-fungal activity is given for the new molecules. The micro-organisms used were Candida albicans (a typical yeast) and Microsporum gypseum (a typical mold).
(§7) Also for the determination of the anti-fungal activity the Bioscreen C Analyser Labsystems Oy, Finland was used. It measures growth continuously by vertical photometry (optical density), processes the data and provides a print out of the results. The area under the growth curve is automatically determined via the Biolink software.
(§8) The inoculum size of the yeast is standardized to 0.5-2.5×10^3 CFU/ml. The inoculum size of the mould is standardized to 0.4-5.0×10^4 CFU/ml. Yeasts are incubated 35° C. for 24 hours in RPMI 1640+MOPS buffer at 165 mM. Moulds also in RPMI 1640+MOPS buffer at 165 mM are incubated 25° C. for 5 days.
(§9) As a control, all micro-organisms are screened against some reference antibiotics with known MIC. Screening of each dose of a specific compound is repeated 5 times.

SMILES	activity at 25 ppm [%]
CO[C@H]1[C@@H]2OC(=O)CC/C=C/CCC(=O)OC[C@H]2OC[C@@H]1OC [KPE00001006]	93.1
CO[C@@H]1[C@@H](OC)[C@H](Sc2ccccc2)O[C@@H]2COC(=O)CCC(O)C(O)CCC(=O)O[C@@H]12 (stereo partly shown) [KPE00001007]	94.7
CO[C@@H]1[C@@H](OC)[C@H](Sc2ccccc2)O[C@@H]2COCCC/C=C/CCCO[C@@H]12 [KPE00001009.1]	93.9
CO[C@@H]1[C@@H](OC)[C@H](Sc2ccccc2)O[C@@H]2COCCC/C=C\CCCO[C@@H]12 [KPE00001009.2]	103
CO[C@H]1[C@@H]2OC(=O)CCCCCCC(=O)OC[C@H]2OC[C@@H]1OC [KPE00001010]	95.5
CO[C@@H]1[C@@H](OC)[C@H](O)[C@@H](CO)O[C@H]1Sc1ccccc1 [KPE00001011]	79.3

system: MRSA ATCC33591; assay: Anti-bacterial activity, Bioscreen C growth curve: MRSA; format: cell-based, methicillin-resistant Staphylococcus aureus (MRSA); details: Staphylococcus aureus, ATCC 33591 / LMG10147 / MRSA; 25 PPM; 35° C., 16 hours; negative control = 100; read-out: % of growth at 25 PPM compared to the negative control, MRSA ATCC33591 LMG10147
Experimental: as §1, §2, §3, §4, §5

SMILES	activity at 25 ppm [%]
CO[C@H]1[C@@H]2OC(=O)CC/C=C/CCC(=O)OC[C@H]2OC[C@@H]1OC [KPE00001006]	99.7
CO[C@@H]1[C@@H](OC)[C@H](Sc2ccccc2)O[C@@H]2COC(=O)CCC(O)C(O)CCC(=O)O[C@@H]12 (stereo partly shown) [KPE00001007]	97.8
CO[C@@H]1[C@@H](OC)[C@H](Sc2ccccc2)O[C@@H]2COCCC/C=C/CCCO[C@@H]12 [KPE00001009.1]	107
CO[C@@H]1[C@@H](OC)[C@H](Sc2ccccc2)O[C@@H]2COCCC/C=C\CCCO[C@@H]12 [KPE00001009.2]	111
CO[C@H]1[C@@H]2OC(=O)CCCCCCC(=O)OC[C@H]2OC[C@@H]1OC [KPE00001010]	110
CO[C@@H]1[C@@H](OC)[C@H](O)[C@@H](CO)O[C@H]1Sc1ccccc1 [KPE00001011]	90.5

system: E. faecalis ATTC29212 LMG 8222; assay: Anti-bacterial activity, Bioscreen C growth curve: E. faecalis; format: cell-based; details: Enterococcus faecalis, LMG8222, 35° C., 16 hours, negative control = 100, read-out: % of growth at 25 PPM compared to the negative control, E. faecalis ATTC29212 LMG 8222
Experimental: as §1, §2, §3, §4, §5

SMILES	activity at 25 ppm [%]
CO[C@H]1[C@@H]2OC(=O)CC/C=C/CCC(=O)OC[C@H]2OC[C@@H]1OC [KPE00001006]	92.5
CO[C@@H]1[C@@H](OC)[C@H](Sc2ccccc2)O[C@@H]2COC(=O)CCC(O)C(O)CCC(=O)O[C@@H]12 (stereo partly shown) [KPE00001007]	97
CO[C@@H]1[C@@H](OC)[C@H](Sc2ccccc2)O[C@@H]2COCCC/C=C/CCCO[C@@H]12 [KPE00001009.1]	87.5
CO[C@@H]1[C@@H](OC)[C@H](Sc2ccccc2)O[C@@H]2COCCC/C=C\CCCO[C@@H]12 [KPE00001009.2]	85.5
CO[C@H]1[C@@H]2OC(=O)CCCCCCC(=O)OC[C@H]2OC[C@@H]1OC [KPE00001010]	90.6
CO[C@@H]1[C@@H](OC)[C@H](O)[C@@H](CO)O[C@H]1Sc1ccccc1 [KPE00001011]	89

system: S. typhimurium ATTC700408; assay: Anti-bacterial activity, Bioscreen C growth curve: S. typhimurium; format: cell-based; details: Salmonella enterica, LMG16217 / TYPHIMURIUM, 35° C., 16 hours, negative control = 100, read-out: % of growth at 25 PPM compared to the negative control, S. typhimurium ATTC700408 LMG16217
Experimental: as §1, §2, §3, §4, §5

SMILES	activity at 25 ppm [%]
CO[C@H]1[C@@H]2OC(=O)CC/C=C/CCC(=O)OC[C@H]2OC[C@@H]1OC [KPE00001006]	94.6
CO[C@@H]1[C@@H](OC)[C@H](Sc2ccccc2)O[C@@H]2COC(=O)CCC(O)C(O)CCC(=O)O[C@@H]12 (stereo partly shown) [KPE00001007]	89.7
CO[C@@H]1[C@@H](OC)[C@H](Sc2ccccc2)O[C@@H]2COCCC/C=C/CCCO[C@@H]12 [KPE00001009.1]	90.1
CO[C@@H]1[C@@H](OC)[C@H](Sc2ccccc2)O[C@@H]2COCCC/C=C\CCCO[C@@H]12 [KPE00001009.2]	90.1
CO[C@H]1[C@@H]2OC(=O)CCCCCCC(=O)OC[C@H]2OC[C@@H]1OC [KPE00001010]	88.8
CO[C@@H]1[C@@H](OC)[C@H](O)[C@@H](CO)O[C@H]1Sc1ccccc1 [KPE00001011]	92.1

system: S. aureus ATTC29213 LMG10147; assay: Anti-bacterial activity, Bioscreen C growth curve: S. aureus; format: cell-based; details: Staphylococcus aureus, 35° C., 16 hours, negative control = 100, read-out: % of growth at 25 PPM compared to the negative control, S. aureus ATTC29213 LMG10147
Experimental: as §1, §2, §3, §4, §5

SMILES	activity at 25 ppm [%]
CO[C@H]1[C@@H]2OC(=O)CC/C=C/CCC(=O)OC[C@H]2OC[C@@H]1OC [KPE00001006]	94.7
CO[C@@H]1[C@@H](OC)[C@H](Sc2ccccc2)O[C@@H]2COC(=O)CCC(O)C(O)CCC(=O)O[C@@H]12 (stereo partly shown) [KPE00001007]	94.9
CO[C@@H]1[C@@H](OC)[C@H](Sc2ccccc2)O[C@@H]2COCCC/C=C/CCCO[C@@H]12 [KPE00001009.1]	98.3
CO[C@@H]1[C@@H](OC)[C@H](Sc2ccccc2)O[C@@H]2COCCC/C=C\CCCO[C@@H]12 [KPE00001009.2]	100
CO[C@H]1[C@@H]2OC(=O)CCCCCCC(=O)OC[C@H]2OC[C@@H]1OC [KPE00001010]	102
CO[C@@H]1[C@@H](OC)[C@H](O)[C@@H](CO)O[C@H]1Sc1ccccc1 [KPE00001011]	89

system: Microsporum gypseum IHEM 3999 - ATCC 14683; assay: Anti-fungal activity, Bioscreen C growth curve: Microsporum gypseum (mold); format: cell-based; details: Nannizzia gypsea, ATCC14683, 120 h; 25 PPM; 25° C., 5 days; negative control = 100; read-out: % of growth at a dose of 25 PPM compared to the negative control, Microsporum gypseum IHEM 3999 - ATCC 14683
Experimental: as §1
The inoculum size of the mould is standardized to 0.4-5.0×10^4 CFU/ml.
as §3, §4, §6, §7, §8, §9

SMILES	activity at 25 ppm [%]
CO[C@H]1[C@@H]2OC(=O)CC/C=C/CCC(=O)OC[C@H]2OC[C@@H]1OC [KPE00001006]	62
CO[C@@H]1[C@@H](OC)[C@H](Sc2ccccc2)O[C@@H]2COC(=O)CCC(O)C(O)CCC(=O)O[C@@H]12 (stereo partly shown) [KPE00001007]	76
CO[C@@H]1[C@@H](OC)[C@H](Sc2ccccc2)O[C@@H]2COCCC/C=C/CCCO[C@@H]12 [KPE00001009.1]	60
CO[C@@H]1[C@@H](OC)[C@H](Sc2ccccc2)O[C@@H]2COCCC/C=C\CCCO[C@@H]12 [KPE00001009.2]	54
CO[C@H]1[C@@H]2OC(=O)CCCCCCC(=O)OC[C@H]2OC[C@@H]1OC [KPE00001010]	60
CO[C@@H]1[C@@H](OC)[C@H](O)[C@@H](CO)O[C@H]1Sc1ccccc1 [KPE00001011]	76.4

same assay, conditions: conclusion in text on Table 5

SMILES	anti-mold activity, in words
CO[C@@H]1[C@@H](OC)[C@H](Sc2ccccc2)O[C@@H]2COCCC/C=C\CCCO[C@@H]12 [KPE00001009.2]	best anti-mold activity

system: P. aeruginosa ATCC27853 LMG16217; assay: Anti-bacterial activity, Bioscreen C growth curve: P. aeruginosa; format: cell-based, Pseudomonas aeruginosa; details: Pseudomonas aeruginosa; 25 PPM; 35° C., 16 hours; negative control = 100; read-out: % of growth at 25 PPM compared to the negative control, P. aeruginosa ATCC27853 LMG16217
Experimental: as §1, §2, §3, §4, §5

SMILES	activity at 25 ppm [%]
CO[C@H]1[C@@H]2OC(=O)CC/C=C/CCC(=O)OC[C@H]2OC[C@@H]1OC [KPE00001006]	87.3
CO[C@@H]1[C@@H](OC)[C@H](Sc2ccccc2)O[C@@H]2COC(=O)CCC(O)C(O)CCC(=O)O[C@@H]12 (stereo partly shown) [KPE00001007]	86.2
CO[C@@H]1[C@@H](OC)[C@H](Sc2ccccc2)O[C@@H]2COCCC/C=C/CCCO[C@@H]12 [KPE00001009.1]	91.6
CO[C@@H]1[C@@H](OC)[C@H](Sc2ccccc2)O[C@@H]2COCCC/C=C\CCCO[C@@H]12 [KPE00001009.2]	67.6
CO[C@H]1[C@@H]2OC(=O)CCCCCCC(=O)OC[C@H]2OC[C@@H]1OC [KPE00001010]	80.7
CO[C@@H]1[C@@H](OC)[C@H](O)[C@@H](CO)O[C@H]1Sc1ccccc1 [KPE00001011]	85
